For three molecules, melting point results are on record in US6429326B1, “Benzylidenecamphor-substituted silanes/organosiloxanes for use in photostabilizing sunscreen compositions comprising dibenzoylmethane compounds” (Societe L'Oreal, priority 1998, dated 2002).

What is called melting point is the temperature of the solid-liquid transition.

`CC12CCC(/C(=C\c3ccc(OCCC[Si](C)(O[Si](C)(C)C)O[Si](C)(C)C)cc3)C1=O)C2(C)C` (stereo not drawn): the melting point lay in the range of 47 to 48 °C.

Turning to `COc1cc(/C=C2/C(=O)C3(C)CCC2C3(C)C)ccc1OCCC[Si](C)(C)C` (stereo not drawn), the melting point was 79 to 80 °C.

Molecule `CC12CCC(/C(=C\c3ccc(OCCC[Si](C)(C)C)cc3)C1=O)C2(C)C` (stereo not drawn) had a melting point of 100 to 101 °C.
